Columns and labels:
Neisseria meningitidis = experiment: Antibacterial activity against Neisseria meningitidis; type: functional
Escherichia coli = experiment: Antibacterial activity against Escherichia coli; type: functional
Staphylococcus aureus = experiment: Antibacterial activity against Staphylococcus aureus; type: functional
Streptococcus pneumoniae = experiment: Antibacterial activity against Streptococcus pneumoniae; type: functional
[1] = target: T1, Beta-ketoacyl-[acyl-carrier-protein] synthase III (Enterococcus faecalis (strain ATCC 700802 / V583), UniProt Q820T1); experiment: Inhibition of Enterococcus faecalis FabH by FabD/FabH coupled assay
T1 sequence (Q820T1 whole entry): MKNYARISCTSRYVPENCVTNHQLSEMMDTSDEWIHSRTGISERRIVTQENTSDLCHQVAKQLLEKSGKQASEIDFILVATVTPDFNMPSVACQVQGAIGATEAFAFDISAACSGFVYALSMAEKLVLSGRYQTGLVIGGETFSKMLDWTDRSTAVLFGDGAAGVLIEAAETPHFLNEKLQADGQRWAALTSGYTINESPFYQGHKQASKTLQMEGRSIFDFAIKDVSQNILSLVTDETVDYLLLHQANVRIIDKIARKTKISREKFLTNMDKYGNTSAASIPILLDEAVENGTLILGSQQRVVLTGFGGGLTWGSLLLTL

IC50 [1]	SMILES	-logMIC (Neisseria meningitidis)	-logMIC (Escherichia coli)	-logMIC (Staphylococcus aureus)	-logMIC (Streptococcus pneumoniae)
–	O=C(Nc1ccccc1C(=O)O)c1ccc(-c2ccccc2)c(Oc2ccccc2)c1	5.854	5.854	4.947	5.854
–	O=C(Nc1ccccc1C(=O)O)c1ccc(-c2ccc(C(F)(F)F)cc2)c(Oc2ccccc2)c1	5.854	6.155	5.252	6.155
–	CC(C)c1cccc(-c2ccc(C(=O)Nc3ccccc3C(=O)O)cc2Oc2ccccc2)c1	5.854	5.553	5.252	5.854
–	O=C(Nc1ccccc1C(=O)O)c1ccc(-c2ccc(F)cc2F)c(Oc2ccccc2)c1	6.444	6.155	5.252	5.553
–	CS(=O)(=O)c1ccc(-c2ccc(C(=O)Nc3ccccc3C(=O)O)cc2Oc2ccccc2)cc1	5.252	5.252	4.347	4.347
–	Cc1cc(-c2ccc(C(=O)Nc3ccccc3C(=O)O)cc2Oc2ccccc2)ccc1Cl	6.155	6.155	5.252	5.553
–	CC1CC(C)CN(c2ccc(C(=O)Nc3ccccc3C(=O)O)cc2Oc2ccccc2)C1 (stereo not given)	5.553	5.252	5.252	5.553
–	Cc1cc(-c2ccc(C(=O)Nc3ccccc3C(=O)O)cc2Oc2ccccc2)ccc1F	6.155	6.155	5.252	6.155
62.1 nM	O=C(Nc1ccccc1C(=O)O)c1cc(O)c(Br)c(Oc2ccccc2)c1	5.553	5.553	4.347	4.347
4 nM	O=C(Nc1ccccc1C(=O)O)c1cc(O)c(-c2ccccc2)c(Oc2ccccc2)c1	5.854	5.854	4.658	4.658
410 nM	O=C(Nc1ccccc1C(=O)O)c1cc(O)cc(Oc2ccccc2)c1	–	–	–	–
10100 nM	O=C(NC1=CCSC1C(=O)O)c1cccc(Oc2ccccc2)c1 (stereo not given)	–	–	–	–
43000 nM	O=C(NC1SC=CC1C(=O)O)c1cccc(Oc2ccccc2)c1 (stereo not given)	–	–	–	–

From ChEMBL document CHEMBL1156671, “QSAR studies on benzoylaminobenzoic acid derivatives as inhibitors of beta-ketoacyl-acyl carrier protein synthase III” (Eur J Med Chem, 2008)
